Source: patent US8937187B2, “Method for depigmenting keratin materials using resorcinol derivatives” (L'Oreal, priority 2010, dated 2015)

Tests used:
[1] = test system: co-culture of keratinocytes and melanocytes; assay: Inhibitory activity on melanin synthesis (constitutive melanogenesis), ratio of thiouracil to leucine incorporation; type: cell-based; conditions: for IC50: thiouracil/leucine incorporation ratio relative to 100% of the control, read-out: IC50 (concentration for which 50% of the synthesis of melanin is inhibited)
Protocol: The modulatory effect of compound 1 on melanogenesis was measured by the method described in patent FR-A-2 734 825 and also in the article by R. Schmidt, P. Krien and M. Régnier, Anal. Biochem., 235(2), 113-18, 1996. This test is carried out on a co-culture of keratinocytes and melanocytes.
For the compound tested, the following parameters were ascertained: • the cytotoxicity, by estimation of the incorporation of leucine, • the inhibitory activity on melanin synthesis, by estimating the ratio of incorporation of thiouracil to the incorporation of leucine, relative to 100% of the control (the control corresponds to the test carried out without compound tested). The IC50 values (concentration for which 50% of the synthesis of melanin is inhibited) were ascertained.
The test was also carried out with arbutin and kojic acid, which are known depigmenting compounds.

[2] = test system: co-culture of keratinocytes and melanocytes; assay: Cytotoxicity by estimation of the incorporation of leucine; type: cell-based
Protocol: The modulatory effect of compound 1 on melanogenesis was measured by the method described in patent FR-[…]. Schmidt, P. […], Anal. Biochem., 235(2), 113-18, 1996. This test is carried out on a co-culture of keratinocytes and melanocytes. […] The test was also carried out with arbutin and kojic acid, which are known depigmenting compounds.

| Structure (SMILES) | IC50 [1] | melting point | Cytotoxicity on co-culture [2] | efficacy in inhibiting melanogenesis compared with arbutin and kojic acid [1] |
| --- | --- | --- | --- | --- |
| O=C1CC(=O)C(Cc2ccc(O)cc2O)C1 (centres unmarked) | 52 µM |  | Non-cytotoxic |  |
| OC[C@H]1O[C@@H](Oc2ccc(O)cc2)[C@H](O)[C@@H](O)[C@@H]1O [Arbutin, reference compound] | > 500 µM |  | Non-cytotoxic |  |
| O=C1CC(Cc2ccc(O)cc2O)C(=O)N1 (centres unmarked) [Compound 1, 3-(2,4-dihydroxybenzyl)pyrrolidine-2,5-dione] |  |  |  | more effective than arbutin and kojic acid |
| O=C1CC(Cc2ccc(O)cc2O)C(=O)N1CCO (centres unmarked) [Compound 12, 3-(2,4-dihydroxybenzyl)-1-(2-hydroxyethyl)pyrrolidine-2,5-dione] |  |  |  | more effective than arbutin and kojic acid |
| CCOC(=O)CN1C(=O)CC(Cc2ccc(O)cc2O)C1=O (centres unmarked) [Compound 32, ethyl [3-(2,4-dihydroxybenzyl)-2,5-dioxopyrrolidin-1-yl]acetate] |  |  |  | more effective than arbutin and kojic acid |

More lines, main results first:

| IC50 [1] | melting point | Structure (SMILES) | Cytotoxicity on co-culture [2] | efficacy in inhibiting melanogenesis compared with arbutin and kojic acid [1] |
| --- | --- | --- | --- | --- |
|  | 122 to 123 °C | CCCCN1C(=O)CC(Cc2ccc(O)cc2O)C1=O (centres unmarked) [Compound 7, 3-(2,4-dihydroxybenzyl)-1-butylpyrrolidine-2,5-dione] |  | more effective than arbutin and kojic acid |
| > 500 µM |  | O=c1cc(CO)occ1O [Kojic acid, reference compound] | 100 µM |  |
| 8.3 µM |  | CCCCN1C(=O)CC(Cc2ccc(O)cc2O)C1=O (centres unmarked) [drawing 126] | Non-cytotoxic |  |
| 9.2 µM |  | CCOC(=O)CN1C(=O)CC(Cc2ccc(O)cc2O)C1=O (centres unmarked) [drawing 128] | Non-cytotoxic |  |
| 14.9 µM |  | O=C1CC(Cc2ccc(O)cc2O)C(=O)N1CCO (centres unmarked) [drawing 129] | Non-cytotoxic |  |
